This passage reports IC50 results from patent US20240190890A1, “MK2 INHIBITORS AND USES THEREOF” (Bristol-Myers Squibb Company, priority 2022, published 2024).

Chain of p38a activated, mitogen-activated protein kinase-activated protein kinase 2 (MAPKAP-K2 or MK2) enzyme (P49137 whole entry): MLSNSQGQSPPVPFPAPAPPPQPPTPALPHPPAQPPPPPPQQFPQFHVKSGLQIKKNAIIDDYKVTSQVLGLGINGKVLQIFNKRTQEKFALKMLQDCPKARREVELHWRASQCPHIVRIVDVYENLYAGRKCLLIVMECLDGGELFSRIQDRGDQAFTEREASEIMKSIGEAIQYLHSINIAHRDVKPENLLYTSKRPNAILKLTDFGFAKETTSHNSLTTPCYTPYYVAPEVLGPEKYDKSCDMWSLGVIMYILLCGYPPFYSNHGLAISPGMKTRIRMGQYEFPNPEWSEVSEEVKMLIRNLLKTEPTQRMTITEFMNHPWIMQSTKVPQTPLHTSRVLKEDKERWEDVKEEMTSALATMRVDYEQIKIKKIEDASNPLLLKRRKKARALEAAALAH

For this assay, the target named is p38a activated, mitogen-activated protein kinase-activated protein kinase 2 (MAPKAP-K2 or MK2) enzyme (Homo sapiens (Human), UniProt P49137). Kind of assay: MK2 Omnia continuous-read kinase assay for compound potency. Type of assay: biochemical. The settings on record: [MK-2]=0.4 nM, [ATP]=10 μM, [ST3-Sox]=10 μM; room temperature. In a few lines:
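p38a-activated MK2 (0.4 nM) with 10 μM ATP (apparent Km) and 10 μM S/T3-Sox peptide in Tris pH 7.5 buffer with MgCl2, EGTA and DTT. Fluorescence (ex360/em485) read continuously for 120 min at room temperature. IC50 from initial linear slopes; apparent kinact/KI from kobs of exponential progress-curve fits.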
The IC50 is the concentration at which inhibition is half-maximal. For the compound `C#Cc1cc(-c2ccc3c(ccc4sc5c(c43)NC[C@@H](C)NC5=O)n2)c(N(C)C)nn1` [Example I-105, (R)-3-(3-(dimethylamino)-6-ethynylpyridazin-4-yl)-10-methyl-9,10,11,12-tetrahydro-8H-[1,4]diazepino[5′,6′:4,5]thieno[3,2-f]quinolin-8-one], the IC50 is 118 nM.
The value for `C[C@@H]1CNc2c(sc3ccc4nc(-c5cc(N6CCN(C)CC6)nc(Cl)n5)ccc4c23)C(=O)N1` [Example I-16, (R)-3-(2-chloro-6-(4-methylpiperazin-1-yl)pyrimidin-4-yl)-10-methyl-9,10,11,12-tetrahydro-8H-[1,4]diazepino[5′,6′:4,5]thieno[3,2-f]quinolin-8-one] was 26 nM; that for `C=Cc1nccc(-c2ccc3c(ccc4sc5c(c43)NC[C@@H](C)NC5=O)n2)c1F` [Example I-217, (R)-3-(3-fluoro-2-vinylpyridin-4-yl)-10-methyl-9,10,11,12-tetrahydro-8H-[1,4]diazepino[5′,6′:4,5]thieno[3,2-f]quinolin-8-one] was 78 nM.
The value for `C=Cc1ncnn1-c1ccc2c(ccc3sc4c(c32)NC[C@@H](C)NC4=O)n1` [Example I-214, (R)-10-methyl-3-(5-vinyl-1H-1,2,4-triazol-1-yl)-9,10,11,12-tetrahydro-8H-[1,4]diazepino[5′,6′:4,5]thieno[3,2-f]quinolin-8-one] was 2 nM; that for `C=Cc1cc(-c2ccc3c(ccc4sc5c(c43)NCC(C)NC5=O)n2)cc(N2CC3CC2CO3)n1` (racemic) [Example I-216, rac-(10R)-3-(2-(2-oxa-5-azabicyclo[2.2.1]heptan-5-yl)-6-vinylpyridin-4-yl)-10-methyl-9,10,11,12-tetrahydro-8H-[1,4]diazepino[5′,6′:4,5]thieno[3,2-f]quinolin-8-one] was 11 nM.
Consider `C#Cc1cc(-c2ccc3c(ccc4sc5c(c43)NC[C@@H](C)NC5=O)n2)cc(CN2CCN(C)CC2)n1` [Example I-126, (R)-3-(2-ethynyl-6-((4-methylpiperazin-1-yl)methyl)pyridin-4-yl)-10-methyl-9,10,11,12-tetrahydro-8H-[1,4]diazepino[5′,6′:4,5]thieno[3,2-f]quinolin-8-one], for which the IC50 turned out to be 34 nM.
Next, `C=Cc1cc(-c2ccc3c(ccc4sc5c(c43)NC[C@@H](C)NC5=O)n2)c(OC)nn1` [Example I-127, (R)-3-(3-methoxy-6-vinylpyridazin-4-yl)-10-methyl-9,10,11,12-tetrahydro-8H-[1,4]diazepino[5′,6′:4,5]thieno[3,2-f]quinolin-8-one]: 50 nM; `C/C=C/c1ncc(F)c(-c2ccc3c(ccc4sc5c(c43)NC[C@@H](C)NC5=O)n2)n1` [Example I-45, (R,E)-3-(5-fluoro-2-(prop-1-en-1-yl)pyrimidin-4-yl)-10-methyl-9,10,11,12-tetrahydro-8H-[1,4]diazepino[5′,6′:4,5]thieno[3,2-f]quinolin-8-one]: 160 nM.
The value for `C=Cc1noc(C)c1-c1ccc2c(ccc3sc4c(c32)NC[C@@H](C)NC4=O)n1` [Example I-227, (R)-10-methyl-3-(5-methyl-3-vinylisoxazol-4-yl)-9,10,11,12-tetrahydro-8H-[1,4]diazepino[5′,6′:4,5]thieno[3,2-f]quinolin-8-one] was 418 nM; that for `C[C@@H]1CNc2c(sc3ccc4nc(-c5cc(Cl)ncn5)ccc4c23)C(=O)N1` [Example I-11, (R)-3-(6-chloropyrimidin-4-yl)-10-methyl-9,10,11,12-tetrahydro-8H-[1,4]diazepino[5′,6′:4,5]thieno[3,2-f]quinolin-8-one] was 2 nM.
As for `C#Cc1ncc(C)c(-c2ccc3c(ccc4sc5c(c43)NC[C@@H](C)NC5=O)n2)n1` [Example I-41, (R)-3-(2-ethynyl-5-methylpyrimidin-4-yl)-10-methyl-9,10,11,12-tetrahydro-8H-[1,4]diazepino[5′,6′:4,5]thieno[3,2-f]quinolin-8-one], the IC50 came to 199 nM.
The value for `CC#Cc1ncc(F)c(-c2ccc3c(ccc4sc5c(c43)NC[C@@H](C)NC5=O)n2)n1` [Example I-44, (R)-3-(5-fluoro-2-(prop-1-yn-1-yl)pyrimidin-4-yl)-10-methyl-9,10,11,12-tetrahydro-8H-[1,4]diazepino[5′,6′:4,5]thieno[3,2-f]quinolin-8-one] was 1000 nM; that for `C[C@@H]1CNc2c(sc3ccc4nc(-n5cnc(Cl)n5)ccc4c23)C(=O)N1` [Example I-210, (R)-3-(3-chloro-1H-1,2,4-triazol-1-yl)-10-methyl-9,10,11,12-tetrahydro-8H-[1,4]diazepino[5′,6′:4,5]thieno[3,2-f]quinolin-8-one] was 91 nM; that for `C=Cc1cc(-c2ccc3c(ccc4sc5c(c43)NC[C@@H](C)NC5=O)n2)c(COCC)cn1` [Example I-262, (R)-3-(5-(ethoxymethyl)-2-vinylpyridin-4-yl)-10-methyl-9,10,11,12-tetrahydro-8H-[1,4]diazepino[5′,6′:4,5]thieno[3,2-f]quinolin-8-one] was 35 nM.
Take `C=Cc1nc2c(c(-c3ccc4c(ccc5sc6c(c54)NC[C@@H](C)NC6=O)n3)n1)CN(C)CC2` [Example I-191, (R)-10-methyl-3-(6-methyl-2-vinyl-5,6,7,8-tetrahydropyrido[4,3-d]pyrimidin-4-yl)-9,10,11,12-tetrahydro-8H-[1,4]diazepino[5′,6′:4,5]thieno[3,2-f]quinolin-8-one]: the IC50 was 289 nM.
Regarding `C#Cc1nc2c(c(-c3ccc4c(ccc5sc6c(c54)NC[C@@H](C)NC6=O)n3)n1)CN(C)CC2` [Example I-193, (R)-3-(2-ethynyl-6-methyl-5,6,7,8-tetrahydropyrido[4,3-d]pyrimidin-4-yl)-10-methyl-9,10,11,12-tetrahydro-8H-[1,4]diazepino[5′,6′:4,5]thieno[3,2-f]quinolin-8-one], the IC50 was 526 nM.
For the compound `C#Cc1nc(C#CC(C)(C)N)cc(-c2ccc3c(ccc4sc5c(c43)NC[C@@H](C)NC5=O)n2)n1` [Example I-65, (R)-3-(6-(3-amino-3-methylbut-1-yn-1-yl)-2-ethynylpyrimidin-4-yl)-10-methyl-9,10,11,12-tetrahydro-8H-[1,4]diazepino[5′,6′:4,5]thieno[3,2-f]quinolin-8-one], the IC50 is 132 nM.
Consider `C[C@@H]1CNc2c(sc3ccc4nc(-n5ccnc5C#N)ccc4c23)C(=O)N1` [Example I-246, (R)-1-(10-methyl-8-oxo-9,10,11,12-tetrahydro-8H-[1,4]diazepino[5′,6′:4,5]thieno[3,2-f]quinolin-3-yl)-1H-imidazole-2-carbonitrile], for which the IC50 stood at 16 nM.
The value for `C=C(CN1CCCC1)c1cc(-c2ccc3c(ccc4sc5c(c43)NC[C@@H](C)NC5=O)n2)ccn1` [Example I-116, (R)-10-methyl-3-(2-(3-(pyrrolidin-1-yl)prop-1-en-2-yl)pyridin-4-yl)-9,10,11,12-tetrahydro-8H-[1,4]diazepino[5′,6′:4,5]thieno[3,2-f]quinolin-8-one] was 6 nM; that for `C=C(F)c1cccc(-c2ccc3c(ccc4sc5c(c43)NC[C@@H](C)NC5=O)n2)n1` [Example I-90, (R)-3-(6-(1-fluorovinyl)pyridin-2-yl)-10-methyl-9,10,11,12-tetrahydro-8H-[1,4]diazepino[5′,6′:4,5]thieno[3,2-f]quinolin-8-one] was 460 nM; that for `[2H]C([2H])([2H])C(O)c1cnc(C=C)cc1-c1ccc2c(ccc3sc4c(c32)NC[C@@H](C)NC4=O)n1` (stereo partly drawn) [Example I-260, (10R)-3-(5-(1-hydroxyethyl-2,2,2-d3)-2-vinylpyridin-4-yl)-10-methyl-9,10,11,12-tetrahydro-8H-[1,4]diazepino[5′,6′:4,5]thieno[3,2-f]quinolin-8-one] was 16 nM.
In the case of `C=C(C)c1ncc(F)c(-c2ccc3c(ccc4sc5c(c43)NC[C@@H](C)NC5=O)n2)n1` [Example I-47, (R)-3-(5-fluoro-2-(prop-1-en-2-yl)pyrimidin-4-yl)-10-methyl-9,10,11,12-tetrahydro-8H-[1,4]diazepino[5′,6′:4,5]thieno[3,2-f]quinolin-8-one], the half-inhibitory concentration (IC50) was found to be 429 nM.
`C=Cc1cc(-c2ccc3c(ccc4sc5c(c43)NC[C@@H](C)NC5=O)n2)cc(N2CCC(F)CC2)n1` [Example I-239, (R)-3-(2-(4-fluoropiperidin-1-yl)-6-vinylpyridin-4-yl)-10-methyl-9,10,11,12-tetrahydro-8H-[1,4]diazepino[5′,6′:4,5]thieno[3,2-f]quinolin-8-one]: the IC50 was found to be 161 nM.
The value for `C#Cc1cncc(-c2ccc3c(ccc4sc5c(c43)NC[C@@H](C)NC5=O)n2)c1` [Example I-83, (R)-3-(5-ethynylpyridin-3-yl)-10-methyl-9,10,11,12-tetrahydro-8H-[1,4]diazepino[5′,6′:4,5]thieno[3,2-f]quinolin-8-one] was 83 nM.
On to `Cc1cnc(Cl)nc1-c1ccc2c(ccc3sc4c(c32)NC[C@@H](C)NC4=O)n1` [Example I-6, (R)-3-(2-chloro-5-methylpyrimidin-4-yl)-10-methyl-9,10,11,12-tetrahydro-8H-[1,4]diazepino[5′,6′:4,5]thieno[3,2-f]quinolin-8-one], for which the IC50 was 912 nM.
`C=Cc1cc(-c2ccc3c(ccc4sc5c(c43)NC[C@@H](C)NC5=O)n2)c(C)c(C)n1` [Example I-194, (R)-3-(2,3-dimethyl-6-vinylpyridin-4-yl)-10-methyl-9,10,11,12-tetrahydro-8H-[1,4]diazepino[5′,6′:4,5]thieno[3,2-f]quinolin-8-one]: the IC50 was determined as 5 nM.
The value for `C=Cc1cc(-c2ccc3c(ccc4sc5c(c43)NC[C@@H](C)NC5=O)n2)cc(Cl)n1` [Example I-72, (R)-3-(2-chloro-6-vinylpyridin-4-yl)-10-methyl-9,10,11,12-tetrahydro-8H-[1,4]diazepino[5′,6′:4,5]thieno[3,2-f]quinolin-8-one] was 58 nM.
